From patent US12234245B2, “Sulfonimidamide compounds as inhibitors of interleukin-1 activity” (Genentech, Inc., priority 2018, dated 2025)
Read-outs that look alike come from different tables or passages of the source.

Columns and labels:
Assay type in all cases: cell-based
PBMCs = test: CTG (CellTiter-Glo) viability assay in PBMCs; details: LPS and nigericin stimulated
Procedure: (§1) Human peripheral blood mononuclear cells (PBMCs), consisting of lymphocytes (T, B and NK cells), monocytes and dendritic cells, were freshly isolated from human peripheral blood from healthy donors. Cells were obtained through an IRB approved donor program by iXCells Biotechnologies where all the donors were tested for bacterial and viral infections. Cells were purified from peripheral blood using ficoll gradient centrifugation.
(§2) Fresh or cryopreserved PMBCs were seeded in V-bottom 96-well plate at 0.5-1×10^5 cells per well and incubated overnight at 37° C. with 5% CO2 in RPMI 1640 medium with GlutaMAX supplement, 4.5 g/L D-glucose, 10% Fetal Bovine Serum (FBS), […] Sodium Pyruvate, 1% Penicillin/Streptomycin, 10 mM HEPES and 0.05 mM of β-mercaptoethanol. Freshly isolated or cryopreserved KCs cells were seeded in flat-bottom 96-well plates at 0.6-1.5×10^5 cells/well and incubated overnight at 37° C. 5% CO2 in RPMI 1640 Medium with GlutaMAX supplement, FBS, 1% Penicillin/Streptomycin and 10 mM HEPES. The following day, the cells were primed with 100 ng/mL of lipopolysaccharides (LPS; Sigma Aldrich) in FBS-free RPMI 1640 for 3 h. After the priming step, the media was removed and PBMCs were pre-incubated with serial concentrations of test compounds (0.00017-10 uM) or vehicle (DMSO) for 30 min in FBS-free media prior to addition of the NLRP3 activator. Cells were then stimulated with 10 uM Nigericin (Sigma Aldrich; InvivoGen) for 1.5 h. Plates were centrifuged at 1,500 rpm for 3 minutes to pellet cells and supernatant was transferred into new plates for subsequent experiments.
Viability of compound treated cells was measured using CellTiter-Glo® assay (Promega, Madison, Wis.) that measures the ATP content of cells which is proportional to the number of live cells within a well. This is a counter-screen to establish that the reduction of IL-1β levels in LPS and nigericin stimulated and compound treated cells is not due to cytotoxicity, but rather through the inhibition of the inflammasome pathway. Compounds inhibiting NRLP3 inflammasome activation ultimately increase the viability of LPS and nigericin stimulated cells by blocking NLRP3 mediated pyroptosis that would otherwise lead to cell lysis.

NLRP3 inflammasome [1] = molecular target: T1, NLRP3 inflammasome (Homo sapiens, UniProt Q96P20); test: NLRP3 inflammasome activation assay in PBMCs, IL-1β release (ELISA / HTRF); design: were freshly isolated from human peripheral blood from healthy donors; StemCells Technologies; host or cells: primary human PBMCs, LPS-primed, nigericin-stimulated; details: LPS primed
Procedure: Some of the following assays were used to determine the inhibitory activity of the compounds on the NLRP3 inflammasome using a common inflammasome activation stimuli—nigericin.
as §1, §2
For ELISA assays cells were seeded into 96-well plates. Post study, supernatants were removed and the levels of mature IL-1β, IL18 and TNFα (Quantikine ELISA, R&D systems) were measured in cell conditioned media by ELISA according to manufacturer's instructions.
Human frozen PBMCs were purchased from StemCells Technologies. Cells were rapidly thawed in 37° C. water bath and resuspended in fresh assay media consisting of RPMI 1640 Medium containing 1% sodium pyruvate, 10 mM HEPES, 2.5 g/L glucose and 55 μM 2-Mercaptoethanol. Cell density was adjusted to 8.1×10^5 cells/mL. Cells were primed by adding lipopolysaccharide (Invivogen Ultrapure lipopolysaccharide from E. coli, tlrl-3pelps) at a final concentration of 100 ng/mL in cell suspension. 37 μL of cell suspension with LPS was seeded per well of a 384 well plate and incubated for 3 hours at 37° C. and 5% CO2. After priming, PBMCs were preincubated with serially diluted test compounds with starting concentration of 40 μM followed by 2-fold dilution for a 20-point curve or vehicle (DMSO) for 30 min in assay media at 37° C. and 5% CO2. Cells were then stimulated with 10 μM nigericin (Invivogen, tlrl-nig-5) for 90 min at 37° C. and 5% CO2 to activate NLRP3 dependent inflammasome pathway and IL-1β release in cell culture supernatant. Cells were centrifuged at 1200 RPM for 1 min and 40 μL of supernatant was transferred into fresh plates and stored at −80° C. until IL-1β analysis.
16 μL of supernatant was added to white 384 well HTRF plates, followed by addition of 4 μL of HTRF cocktail in each well. Plates were quickly centrifuged, sealed and incubated overnight at room temperature. Next day, HTRF signal was read on a Pherastar and ratio of 665/620 was calculated based on manufacturer's protocol to obtain concentration of IL-1β in cell culture supernatant.

NLRP3 inflammasome [2] = molecular target: T1, NLRP3 inflammasome; test: THP-1 ASC-GFP speck assay; design: host or cells: THP-1 ASC-GFP cells, PMA-differentiated, LPS-primed, nigericin-stimulated; details: THP-1 ASC-GFP cells, PMA differentiated, LPS primed, 10 μM nigericin; read-out: THP1 ASC Speck IC50
Outline: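 PMA-differentiated (500 ng/ml, overnight) THP-1 ASC-GFP cells primed with 1 μg/mL LPS for 3 h, preincubated 30 min with compound (top 40 μM, 2-fold, 20 points), then stimulated with 10 μM nigericin for 90 min at 37 °C. After fixation and Hoechst staining, imaging gave the percentage of cells bearing a GFP ASC speck.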

[3] = 10 μM nigericin, read-out: PBMC IL-1β IC50
[4] = human PBMCs, read-out: PBMC CTG IC50
[5] = 10 uM nigericin, read-out: PBMC IL-1 β IC50

T1 sequence (Q96P20 whole entry): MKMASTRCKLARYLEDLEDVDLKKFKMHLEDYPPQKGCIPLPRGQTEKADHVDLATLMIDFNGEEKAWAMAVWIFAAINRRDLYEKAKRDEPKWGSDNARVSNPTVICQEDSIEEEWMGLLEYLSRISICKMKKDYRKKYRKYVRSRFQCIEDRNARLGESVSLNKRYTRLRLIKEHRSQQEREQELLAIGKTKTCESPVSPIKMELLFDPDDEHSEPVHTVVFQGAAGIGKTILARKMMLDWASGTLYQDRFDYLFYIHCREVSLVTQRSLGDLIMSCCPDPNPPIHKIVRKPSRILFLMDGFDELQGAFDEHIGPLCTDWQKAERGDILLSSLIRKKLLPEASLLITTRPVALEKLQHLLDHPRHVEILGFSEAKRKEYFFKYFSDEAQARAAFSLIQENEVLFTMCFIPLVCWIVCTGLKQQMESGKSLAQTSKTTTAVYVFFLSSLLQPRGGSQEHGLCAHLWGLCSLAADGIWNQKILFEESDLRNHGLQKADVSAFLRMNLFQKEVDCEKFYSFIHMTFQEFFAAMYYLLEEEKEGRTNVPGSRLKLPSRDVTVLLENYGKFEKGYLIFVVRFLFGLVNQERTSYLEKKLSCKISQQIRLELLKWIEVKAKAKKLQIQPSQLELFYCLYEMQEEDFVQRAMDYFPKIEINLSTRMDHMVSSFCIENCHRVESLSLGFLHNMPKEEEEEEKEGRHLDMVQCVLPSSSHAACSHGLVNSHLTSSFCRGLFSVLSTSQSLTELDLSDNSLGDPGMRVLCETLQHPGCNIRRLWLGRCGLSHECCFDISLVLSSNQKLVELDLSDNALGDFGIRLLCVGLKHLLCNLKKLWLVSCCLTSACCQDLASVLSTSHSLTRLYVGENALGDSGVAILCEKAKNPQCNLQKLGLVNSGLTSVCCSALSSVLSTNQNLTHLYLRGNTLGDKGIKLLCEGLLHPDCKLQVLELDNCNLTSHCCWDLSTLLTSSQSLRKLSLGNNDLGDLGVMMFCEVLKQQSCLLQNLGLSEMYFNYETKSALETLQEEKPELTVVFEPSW

Row | IC50 (NLRP3 inflammasome [1]; [3]) [nM] | IC50 (NLRP3 inflammasome [2]) [nM] | IC50 (NLRP3 inflammasome [1]; [5]) [nM] | Structure (SMILES) | IC50 (PBMCs; Homo sapiens, PBMC) [nM] | IC50 (PBMCs; [4]) [nM]
1 | > 10000 |  |  | CNS(=O)(=NC(=O)Nc1c2c(cc3c1CCC3)CCC2)c1cnn2c1OCCC2 (racemic) [Example 9, N′-((1,2,3,5,6,7-hexahydro-s-indacen-4-yl)carbamoyl)-N-methyl-6,7-dihydro-5H-pyrazolo[5,1-b][1,3]oxazine-3-sulfonimidamide] | > 10000 | 
2 | > 10000 | > 20000 |  | NS(=O)(=NC(=O)Nc1c2c(c(C(=O)O)c3c1CCC3)CCC2)c1cnn2c1OCCC2 (racemic) [Example 37, 8-(3-(6,7-dihydro-5H-pyrazolo[5,1-b][1,3]oxazine-3-sulfonimidoyl)ureido)-1,2,3,5,6,7-hexahydro-s-indacene-4-carboxylic acid] | > 10000 | 
3 | 95 | 150 |  | NS(=O)(=NC(=O)Nc1c2c(c(F)c3c1CCC3)CCC2)c1cnn2c1OCCC2 (single isomer, unassigned) [Example 22] |  | 66
4 | 300 |  |  | CNC1COc2c(S(N)(=O)=NC(=O)Nc3c4c(cc5c3CCC5)CCC4)cnn2C1 (single isomer, unassigned) [Example 25] |  | 8
5 | 180 |  |  | NS(=O)(=NC(=O)Nc1c2c(cc3c1CCC3)CCC2)c1cnn2c1OCC(NCCF)C2 (single isomer, unassigned) [Example 35] | 250 | 
6 | 50 | 66 |  | NS(=O)(=NC(=O)Nc1c2c(cc3c1CCC3)CCC2)c1cnn2c1OCC(NCCF)C2 (single isomer, unassigned) [Example 36] |  | 170
7 | 2030 | 1500 |  | COC1CN(C2COc3c(S(N)(=O)=NC(=O)Nc4c5c(cc6c4CCC6)CCC5)cnn3C2)C1 (single isomer, unassigned) [Example 38] |  | 1160
8 | 19 |  |  | COC1CN(C2COc3c(S(N)(=O)=NC(=O)Nc4c5c(cc6c4CCC6)CCC5)cnn3C2)C1 (single isomer, unassigned) [Example 39] |  | 150
9 | 4.9 | 8.8 |  | CNC1COc2c(S(N)(=O)=NC(=O)Nc3c4c(c(F)c5c3CCC5)CCC4)cnn2C1 (single isomer, unassigned) [Example 40] |  | 3
10 | 6800 | 430 |  | CNC1COc2c(S(N)(=O)=NC(=O)Nc3c4c(c(F)c5c3CCC5)CCC4)cnn2C1 (single isomer, unassigned) [Example 41] |  | 1310

Second part, the compound before the results:

Row | Structure (SMILES) | IC50 (NLRP3 inflammasome [1]; [3]) [nM] | IC50 (NLRP3 inflammasome [2]) [nM] | IC50 (NLRP3 inflammasome [1]; [5]) [nM] | IC50 (PBMCs; Homo sapiens, PBMC) [nM] | IC50 (PBMCs; [4]) [nM]
11 | NS(=O)(=NC(=O)Nc1c2c(cc3c1CCC3)CCC2)c1cnn(CC2CC2)c1 (racemic) [Example 10, 1-(cyclopropylmethyl)-N′-((1,2,3,5,6,7-hexahydro-s-indacen-4-yl)carbamoyl)-1H-pyrazole-4-sulfonimidamide] | 350 |  |  | 360 | 
12 | CC(C)c1cc(F)cc(C(C)C)c1NC(=O)N=S(N)(=O)c1cnn2c1OCCC2 (single isomer, unassigned) [Example 7] | 290 |  |  | 3 | 
13 | CC(C)c1cc(F)cc(C(C)C)c1NC(=O)N=S(N)(=O)c1cnn2c1OCCC2 (single isomer, unassigned) [Example 8] | 1000 | 9400 |  |  | 2
14 | CO[C@@H]1COc2c(S(=N)(=O)NC(=O)Nc3c4c(cc5c3CCC5)CCC4)cnn2C1 (some centres unmarked) [drawing 650] |  |  | < 100 |  | < 100
15 | CC(C)c1cc(F)cc(C(C)C)c1NC(=O)NS(=N)(=O)c1cnn2c1OCCC2 (centres unmarked) [drawing 651] |  |  | 100 to 1000 |  | 100 to 1000
16 | CC(C)c1cc(F)cc(C(C)C)c1NC(=O)NS(=N)(=O)c1cnn2c1OCCC2 (centres unmarked) [drawing 655] |  |  | 100 to 1000 | < 100 | 
17 | CC(C)c1cc(F)cc(C(C)C)c1NC(=O)NS(=N)(=O)c1cnn2c1OCCC2 (centres unmarked) [drawing 656] |  |  | 100 to 1000 |  | < 100
